Reference: patent US20090312280A1
pIC50: −log10 of the molar value.

Experiments:
P70S6K = P70S6K (Homo sapiens, UniProt P23443); assay: biochemical kinase screening assay
EGFR2 = EGFR2 (Homo sapiens, UniProt P35968); assay: biochemical kinase screening assay; details: read-out: IC50 (nM), given as Ki
Rsk2 = Rsk2 (Homo sapiens, UniProt P51812); assay: biochemical kinase screening assay
Lyn = Lyn (Homo sapiens, UniProt P07948); assay: biochemical kinase screening assay
[1] = maximum tolerated dose by mean body weight loss; details: in vivo
HUVEC cells = assay: cell survival assay in normal cells; assay type: cell-based
Description: The cytotoxic effect induced by the combination treatment in HUVEC cells is negligible compared with the cytotoxicity induced by the same treatment in tumor cells. […] A cell survival assay was also performed in HTC116 cells (human colon carcinoma) that were transiently transfected with a plasmid containing either p53 wild type or mutant.

Bmx = Bmx (Homo sapiens, UniProt P51813); assay: biochemical kinase screening assay
Bmx, sequence (P51813 whole entry): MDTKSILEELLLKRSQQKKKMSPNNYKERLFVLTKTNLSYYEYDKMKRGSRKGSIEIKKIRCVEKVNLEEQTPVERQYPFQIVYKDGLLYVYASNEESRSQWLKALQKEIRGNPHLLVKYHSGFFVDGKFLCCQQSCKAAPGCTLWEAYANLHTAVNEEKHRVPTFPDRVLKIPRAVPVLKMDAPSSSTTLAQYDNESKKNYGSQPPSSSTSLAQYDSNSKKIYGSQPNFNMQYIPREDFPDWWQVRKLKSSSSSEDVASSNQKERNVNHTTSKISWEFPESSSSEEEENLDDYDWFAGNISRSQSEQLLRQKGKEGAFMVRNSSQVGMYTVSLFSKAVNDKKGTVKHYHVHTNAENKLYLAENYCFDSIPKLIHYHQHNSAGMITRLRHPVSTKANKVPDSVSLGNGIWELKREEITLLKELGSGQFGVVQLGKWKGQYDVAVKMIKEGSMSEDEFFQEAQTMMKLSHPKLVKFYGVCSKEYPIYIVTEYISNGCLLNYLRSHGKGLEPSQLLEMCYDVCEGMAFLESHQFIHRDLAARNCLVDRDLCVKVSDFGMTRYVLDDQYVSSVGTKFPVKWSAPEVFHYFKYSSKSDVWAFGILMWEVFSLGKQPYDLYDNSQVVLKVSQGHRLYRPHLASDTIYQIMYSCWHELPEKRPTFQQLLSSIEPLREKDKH

cSRC = cSRC (Homo sapiens, UniProt P12931); assay: biochemical kinase screening assay
cSRC, sequence (P12931 whole entry): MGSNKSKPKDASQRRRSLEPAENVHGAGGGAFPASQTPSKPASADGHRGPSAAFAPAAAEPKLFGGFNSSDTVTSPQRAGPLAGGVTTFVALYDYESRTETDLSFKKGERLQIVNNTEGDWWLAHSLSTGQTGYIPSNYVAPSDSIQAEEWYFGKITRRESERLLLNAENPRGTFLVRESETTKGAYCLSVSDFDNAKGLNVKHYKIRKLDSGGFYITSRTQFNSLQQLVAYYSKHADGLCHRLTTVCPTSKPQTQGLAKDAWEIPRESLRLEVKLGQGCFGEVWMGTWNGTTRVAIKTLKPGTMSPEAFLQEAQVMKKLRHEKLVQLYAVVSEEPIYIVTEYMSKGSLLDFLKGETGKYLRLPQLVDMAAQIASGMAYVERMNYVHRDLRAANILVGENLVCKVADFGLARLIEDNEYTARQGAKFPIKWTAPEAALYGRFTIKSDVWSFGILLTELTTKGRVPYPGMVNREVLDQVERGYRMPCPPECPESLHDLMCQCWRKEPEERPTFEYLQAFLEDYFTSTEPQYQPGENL

TrkA = TrkA (Homo sapiens, UniProt P04629); assay: biochemical kinase screening assay
TrkA, sequence (P04629 33-796): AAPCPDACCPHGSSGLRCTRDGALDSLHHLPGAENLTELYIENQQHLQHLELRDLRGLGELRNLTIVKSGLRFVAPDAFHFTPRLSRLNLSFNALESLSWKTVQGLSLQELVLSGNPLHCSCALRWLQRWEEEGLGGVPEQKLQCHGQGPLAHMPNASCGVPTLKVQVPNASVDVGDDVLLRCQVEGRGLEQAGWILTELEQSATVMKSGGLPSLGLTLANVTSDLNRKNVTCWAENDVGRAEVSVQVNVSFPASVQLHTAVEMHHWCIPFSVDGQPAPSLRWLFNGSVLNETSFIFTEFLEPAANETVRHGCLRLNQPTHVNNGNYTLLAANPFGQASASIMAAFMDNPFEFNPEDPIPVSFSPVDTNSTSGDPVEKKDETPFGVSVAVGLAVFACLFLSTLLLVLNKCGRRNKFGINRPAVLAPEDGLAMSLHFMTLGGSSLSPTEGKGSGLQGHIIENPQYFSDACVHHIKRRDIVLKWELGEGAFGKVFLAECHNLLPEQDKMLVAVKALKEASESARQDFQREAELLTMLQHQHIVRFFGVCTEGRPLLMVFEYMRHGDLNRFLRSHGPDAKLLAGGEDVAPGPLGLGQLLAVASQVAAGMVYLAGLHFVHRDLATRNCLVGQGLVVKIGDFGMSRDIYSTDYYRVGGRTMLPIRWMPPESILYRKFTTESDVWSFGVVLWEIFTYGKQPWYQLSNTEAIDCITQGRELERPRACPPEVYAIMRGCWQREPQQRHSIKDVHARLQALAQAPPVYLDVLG

PKBa = PKBa (Homo sapiens, UniProt P31749); assay: biochemical kinase screening assay
MDA-MB-231 (Breast) = assay: cell survival / MTT combination cytotoxicity; assay type: cell-based, human; details: Homo sapiens
PRK2 = PRK2 (Homo sapiens, UniProt Q16513); assay: biochemical kinase screening assay
Rsk3 = Rsk3 (Homo sapiens, UniProt Q15349); assay: biochemical
Rsk3, sequence (Q15349 whole entry): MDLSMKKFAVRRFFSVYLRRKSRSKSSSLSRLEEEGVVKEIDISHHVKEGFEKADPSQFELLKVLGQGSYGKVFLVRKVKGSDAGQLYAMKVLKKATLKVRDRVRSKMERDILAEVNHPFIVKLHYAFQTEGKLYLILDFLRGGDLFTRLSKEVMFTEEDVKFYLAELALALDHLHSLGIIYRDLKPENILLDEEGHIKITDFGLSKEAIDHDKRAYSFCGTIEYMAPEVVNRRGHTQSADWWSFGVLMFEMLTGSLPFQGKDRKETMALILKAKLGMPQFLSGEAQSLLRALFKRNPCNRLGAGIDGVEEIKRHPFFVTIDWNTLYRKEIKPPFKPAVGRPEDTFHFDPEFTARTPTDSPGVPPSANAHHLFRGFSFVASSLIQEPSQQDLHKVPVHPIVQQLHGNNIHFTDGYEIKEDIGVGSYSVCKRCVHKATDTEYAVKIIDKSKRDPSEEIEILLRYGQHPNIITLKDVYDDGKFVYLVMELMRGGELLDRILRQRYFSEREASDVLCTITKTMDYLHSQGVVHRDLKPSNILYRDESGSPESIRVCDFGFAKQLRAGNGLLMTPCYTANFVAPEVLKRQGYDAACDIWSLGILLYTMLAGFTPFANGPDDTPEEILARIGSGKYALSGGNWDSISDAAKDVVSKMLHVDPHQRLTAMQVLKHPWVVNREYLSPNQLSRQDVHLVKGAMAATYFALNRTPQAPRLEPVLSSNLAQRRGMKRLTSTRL

Fyn = Fyn (Homo sapiens, UniProt P06241); assay: biochemical kinase screening assay
Chk2 = Chk2 (Homo sapiens, UniProt O96017); assay: biochemical kinase screening assay; details: read-out: IC50 (nM), given as Ki
PAR-1Ba = PAR-1Ba (Homo sapiens, UniProt Q7KZI7); assay: biochemical kinase screening assay
Fms = Fms (Homo sapiens, UniProt P07333); assay: biochemical kinase screening assay
Blk(m) = Blk(m) (Mus musculus, UniProt P16277); assay: biochemical kinase screening assay
PC-3 (Prostate) = assay: cell survival / MTT combination cytotoxicity; assay type: cell-based, human; details: Homo sapiens
FGFR3 = FGFR3 (Homo sapiens, UniProt P22607); assay: biochemical kinase screening assay
FGFR3, sequence (P22607 23-806): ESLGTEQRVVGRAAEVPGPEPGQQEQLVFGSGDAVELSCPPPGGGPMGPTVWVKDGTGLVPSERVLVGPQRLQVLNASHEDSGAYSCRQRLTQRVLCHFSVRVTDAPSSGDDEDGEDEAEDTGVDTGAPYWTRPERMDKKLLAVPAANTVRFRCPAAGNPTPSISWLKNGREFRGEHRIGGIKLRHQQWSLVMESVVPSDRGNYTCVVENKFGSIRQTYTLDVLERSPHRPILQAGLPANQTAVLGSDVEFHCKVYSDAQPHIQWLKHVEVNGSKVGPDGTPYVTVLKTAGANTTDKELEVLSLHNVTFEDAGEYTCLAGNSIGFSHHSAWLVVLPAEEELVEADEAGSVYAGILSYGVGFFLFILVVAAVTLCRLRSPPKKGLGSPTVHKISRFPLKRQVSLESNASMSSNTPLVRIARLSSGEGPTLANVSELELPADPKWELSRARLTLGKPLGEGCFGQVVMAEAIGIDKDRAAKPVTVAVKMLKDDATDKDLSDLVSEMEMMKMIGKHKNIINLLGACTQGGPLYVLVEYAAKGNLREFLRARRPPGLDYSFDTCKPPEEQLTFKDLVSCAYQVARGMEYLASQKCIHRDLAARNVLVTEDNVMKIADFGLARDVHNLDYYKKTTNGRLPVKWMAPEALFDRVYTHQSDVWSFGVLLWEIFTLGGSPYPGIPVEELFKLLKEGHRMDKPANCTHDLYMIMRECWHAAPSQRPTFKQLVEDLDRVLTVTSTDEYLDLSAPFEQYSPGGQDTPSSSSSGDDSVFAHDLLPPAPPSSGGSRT

[2] = test system: gemcitabine induced S-Phase arrest; assay: flow cytometry cell cycle / apoptosis analysis; assay type: cell-based

Rsk2, sequence (P51812 whole entry): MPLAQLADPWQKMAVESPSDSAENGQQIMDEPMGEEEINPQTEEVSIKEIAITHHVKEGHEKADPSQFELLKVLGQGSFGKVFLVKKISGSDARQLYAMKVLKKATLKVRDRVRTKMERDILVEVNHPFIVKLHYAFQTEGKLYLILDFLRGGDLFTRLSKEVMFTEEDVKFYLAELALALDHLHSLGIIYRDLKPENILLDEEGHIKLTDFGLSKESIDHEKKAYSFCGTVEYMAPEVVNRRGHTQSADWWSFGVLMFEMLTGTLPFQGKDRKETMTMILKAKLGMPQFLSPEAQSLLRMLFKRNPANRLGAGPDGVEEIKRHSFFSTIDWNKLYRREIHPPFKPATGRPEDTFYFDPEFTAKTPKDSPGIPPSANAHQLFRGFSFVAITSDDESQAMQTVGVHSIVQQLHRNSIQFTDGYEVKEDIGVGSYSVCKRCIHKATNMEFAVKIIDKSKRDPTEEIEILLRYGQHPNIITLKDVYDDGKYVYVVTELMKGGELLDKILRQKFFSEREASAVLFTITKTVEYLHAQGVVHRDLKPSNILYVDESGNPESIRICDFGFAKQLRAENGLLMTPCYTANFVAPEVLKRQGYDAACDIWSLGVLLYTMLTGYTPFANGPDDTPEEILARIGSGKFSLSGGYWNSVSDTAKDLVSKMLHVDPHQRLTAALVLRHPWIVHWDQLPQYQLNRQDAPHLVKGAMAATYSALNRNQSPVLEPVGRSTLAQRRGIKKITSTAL
P70S6K, sequence (P23443 whole entry): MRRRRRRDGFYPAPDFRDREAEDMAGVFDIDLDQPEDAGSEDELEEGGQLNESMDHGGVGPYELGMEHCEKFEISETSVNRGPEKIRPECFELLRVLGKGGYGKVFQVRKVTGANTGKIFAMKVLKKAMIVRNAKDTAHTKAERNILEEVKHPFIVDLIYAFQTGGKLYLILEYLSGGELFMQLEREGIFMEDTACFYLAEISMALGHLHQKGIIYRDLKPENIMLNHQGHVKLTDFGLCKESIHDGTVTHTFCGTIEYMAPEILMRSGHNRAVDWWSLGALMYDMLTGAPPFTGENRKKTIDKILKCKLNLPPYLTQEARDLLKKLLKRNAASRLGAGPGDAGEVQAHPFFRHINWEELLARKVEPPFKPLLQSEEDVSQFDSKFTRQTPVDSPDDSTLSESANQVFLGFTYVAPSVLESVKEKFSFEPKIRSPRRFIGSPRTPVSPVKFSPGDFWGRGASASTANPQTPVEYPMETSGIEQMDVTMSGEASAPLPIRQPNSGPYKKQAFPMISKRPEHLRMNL

Cn1cc(-c2[nH]c3cc(NC(=O)[C@H](N)C4CCCCC4)cc4c3c2C=NNC4=O)cn1 [Compound 1]
pIC50 (P70S6K): 7.21 | Ki (EGFR2): 8 nM | pIC50 (Rsk2): 6.21 | pIC50 (Lyn): 6.58 | MTD [1]: 40 mg/kg | increase in cell kill (HUVEC cells; Compound 1 540 nM (12×EC50) + camptothecin compared with camptothecin alone): 21.7 | increase in cell kill (HUVEC cells; Compound 1 540 nM (12×EC50) + gemcitabine compared with gemcitabine alone): 31.2% | pIC50 (Bmx): 6.63 | pIC50 (cSRC): 6.35 | pIC50 (TrkA): 5.90 | pIC50 (PKBa): 5.04 | pIC50 (MDA-MB-231 (Breast)): 5.85 | pIC50 (PRK2): 5.70 | pIC50 (Rsk3): 6.77 | pIC50 (Fyn): 6.02 | Ki (Chk2): 47 nM | pIC50 (PAR-1Ba): 6.46 | pIC50 (Fms): 8.00 | pIC50 (Blk(m)): 6.44 | pIC50 (PC-3 (Prostate)): 5.80 | pIC50 (FGFR3): 7.64 | S-Phase arrest by flow cytometry ([2]; combination with gemcitabine): abrogation of gemcitabine induced S-Phase arrest | apoptotic cells by flow cytometry ([2]; gemcitabine + Compound 1 compared with gemcitabine alone): significant increase in apoptotic cells | effect on cell cycle ([2]; in the absence of DNA damage): no effect on cell cycle
